From patent US10954269B2, “Anti-inflammatory tripeptides” (Dr. August Wolff Gmbh & Co. KG Arzneimittel, priority 2013, dated 2021)
Where a SMILES comes first, the peptide text is derived from it. [ ]: non-standard residue; d: D form. Tle = CC(C)(C)[C@H](N)C(=O)O; Aib = CC(C)(N)C(=O)O

Assays:
[1] = human, tissue homogenate, 1000 min, 160 μg/ml
Experimental: (§4) Human skin samples (ear skin, umbilical skin and juvenile foreskin) are combined and frozen in liquid nitrogen and homogenized. The resulting human skin homogenate is transferred portionwise (50-70 mg) to Protein LoBind Tubes (2 ml) and stored at −32° C. until use. At the beginning of the stability study the human skin homogenate is thawed. An aqueous solution of the tripeptide compound (1500 μl) with or without 0.02% sodium azide (cpeptide=160 μg/ml) is added and the mixture is incubated at 32° C. Samples were taken at 0, 30, 100, 300 and 1000 minutes. 100 μl sample are diluted with 1900 μl methanol containing an internal standard and analyzed with HPLC-MS. All analyses are performed in triplicate.

in vitro = conditions: human, tissue homogenate, % of the starting concentration
Experimental: as §4

[2] = test system: human keratinocyte cell line (HaCaT); experiment: Cytokine secretion on protein level in activated human keratinocyte cell line HaCaT (13-plex FACS / Luminex, supernatant); assay type: cell-based; conditions: HaCaT; PMA/Ionomycin; Luminex; all tested concentrations
Procedure, shortened: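 Stimulus: PMA/Ionomycin or IFN-γ, 48 h; cells: HaCaT or human peripheral-blood T-cells; tripeptide treatment; readout: supernatant cytokines via 13-plex FACS or Luminex, 48–72 h post-stimulation.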

primary murine T cells = experiment: Gene expression of pro-inflammatory cytokines (RT-qPCR) in primary murine T cells; assay type: cell-based, C57BL/6 mice; conditions: PMA/Ionomycin, 10^−7 M, 10^−9 M and 10^−11 M
From the text: (§1) Cells were activated with PMA/Ionomycin and treated with PBS, α-MSH, K(D)PT and Examples 3, 8 and 9, respectively, at a concentration of 10^−9 M. Values are normalized to β-actin and are shown relative to the gene expression in PBS-stimulated cells.
(§2) Primary T-cells were isolated from peripheral blood from healthy volunteers and from secondary lymphatic organs from naïve C57BL/6 mice, respectively. The cells were stimulated with phorbol-12-myristate-13-acetate (PMA)/Ionomycin and interferon-gamma (IFN-γ), respectively, for 48 h to activate the cells. The activated cells release pro-inflammatory cytokines. In parallel a human (HaCaT) keratinocyte cell line was activated with PMA/Ionomycin and IFN-γ, respectively, too. […] At the same time release of anti-inflammatory IL-10 was inhibited. Two days after addition of PMA/Ionomycin and IFN-γ, respectively, the induction of IL-1 secretion was determined in the supernatant for proving that the cells are activated. […] The anti-inflammatory properties of the tripeptides were determined 48 h and 72 h following stimulation. A 13-plex-system based FACS analysis was used for showing the reduced secretion of pro-inflammatory cytokines in the supernatant. Data for IL-1, IL-2, IL-6, IL-12p70 IL-17, IFN-γ and TNF-α are considered to be most relevant. Thus, analysis of the anti-inflammatory properties of the tripeptides is preferably based on the results obtained for these analytes. […] Using this method the gene expression of pro-inflammatory markers like IL-6, IL-17, IFN-γ and TNF-α was determined.
(§3) In a third experiment murine and human T cells and HaCaT cells were stimulated with PMA/Ionomycin and treated with Examples 14, 15, 16 and 17 at 10^−7 M, 10^−9 M and 10^−11 M. Cytokine concentrations (IFN-γ, IL-17 and IL-10 for T cells and IFN-γ for HaCat) were assessed in the supernatants using the Luminex technology. Expression of genes coding for Il-1β, IL-6 and TNF-α was determined. […] Moreover, concentrations of pro-inflammatory cytokines IFN-γ and IL-17 was reduced in the supernatants whereas the concentration of anti-inflammatory cytokine IL-10 was increased.

primary murine T-cells = experiment: Cytokine secretion on protein level in activated primary murine T-cells (13-plex FACS / Luminex, supernatant); assay type: cell-based, C57BL/6 mice; conditions: murine T cells; PMA/Ionomycin; Luminex; all tested concentrations
Procedure, shortened: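 T-cells from secondary lymphatic organs of naïve C57BL/6 mice, stimulated with PMA/Ionomycin or IFN-γ; supernatant cytokines measured by 13-plex FACS 48 h and 72 h after stimulation. In another run, PMA/Ionomycin-stimulated cells received compounds at 10^−7, 10^−9 and 10^−11 M, with IFN-γ, IL-17 and IL-10 measured by Luminex.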

primary human T cells = experiment: Gene expression of pro-inflammatory cytokines (RT-qPCR) in primary human T cells; assay type: cell-based; conditions: PMA/Ionomycin, 10^−7 M, 10^−9 M and 10^−11 M
From the text: as §1, §2, §3

[3] = test system: human keratinocytes (HaCaT); experiment: Gene expression of pro-inflammatory cytokines (RT-qPCR) in human keratinocytes (HaCaT); assay type: cell-based; conditions: HaCaT cells; PMA/Ionomycin; 10^−7 M, 10^−9 M and 10^−11 M
From the text: as §1, §2, §3

Balb/c mice = experiment: Imiquimod-induced psoriasis in mice; assay type: in vivo; conditions: i.v.; for mRNA expression of IFN-γ and IL-36 in lesional skin: compared to vehicle control; for clinical score: day 9
Experimental: Psoriasis in Balb/c mice is induced by daily application of topical Imiquimod for 8 days. Animal are treated with the test items (topical or systemically). On day 9 the skin phenotype is characterized using a clinical score system (0=normal mouse skin; 1=mild reddening; 2=erythema; 3=erythema, swelling; 4=erythema, swelling, scaling; 5=erythema, swelling, scaling, (bloody) lesions). Skin is analyzed histologically. Lymph nodes are analyzed by flow cytometry and RT-qPCR. mRNA expression in lesional skin is analyzed by RT-qPCR. Cytokine concentrations in the serum are assessed using the Luminex technology.

primary human T-cells = experiment: Cytokine secretion on protein level in activated primary human T-cells (13-plex FACS / Luminex, supernatant); assay type: cell-based; conditions: human T cells; PMA/Ionomycin; Luminex; all tested concentrations
Procedure, shortened: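 PMA/Ionomycin- or IFN-γ-activated cells (48 h) treated with tripeptides; supernatant 13-plex FACS at 48 h and 72 h post-stimulation. Luminex run: PMA/Ionomycin plus compound at 10^−7, 10^−9, 10^−11 M; IFN-γ, IL-17, IL-10 for T cells, IFN-γ for HaCaT.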

Compound	% of the starting concentration [1]	remaining at 1000 min, 160 μg/ml (in vitro)	remaining at 5 h, 160 μg/ml (in vitro)	concentration of pro-inflammatory cytokine IFN-γ in the supernatants [2]	expression of pro-inflammatory cytokines IL-1β, IL-6 and TNF-α on mRNA level (primary murine T cells)	concentration of anti-inflammatory cytokine IL-10 in the supernatants (primary murine T-cells)	concentrations of pro-inflammatory cytokines IFN-γ and IL-17 in the supernatants (primary murine T-cells)	expression of pro-inflammatory cytokines IL-1β, IL-6 and TNF-α on mRNA level (primary human T cells)	expression of pro-inflammatory cytokines IL-1β, IL-6 and TNF-α on mRNA level [3]	concentrations of TNF-α and IL-17 in the serum (Balb/c mice)	epidermal thickness (Balb/c mice)	mRNA expression of IFN-γ and IL-36 in lesional skin (Balb/c mice)	clinical score (Balb/c mice)	concentration of anti-inflammatory cytokine IL-10 in the supernatants (primary human T-cells)	concentrations of pro-inflammatory cytokines IFN-γ and IL-17 in the supernatants (primary human T-cells)
CC(C)(NC(=O)[C@@H]1CCCN1C(=O)[C@@H](N)CCCCN)C(=O)O [Example 8, H-(L)-Lys-(L)-Pro-Aib-OH] (H-Lys-Pro-[Aib]-OH)	47%	40%	–	–	–	–	–	–	–	–	–	–	–	–	–
CC(C)(C)[C@H](NC(=O)[C@@H]1CCCN1C(=O)[C@@H](N)CCCCN)C(=O)O [Example 9, H-(L)-Lys-(L)-Pro-(L)-t-butyl-Gly-OH] (H-Lys-Pro-[Tle]-OH)	–	–	58%	–	–	–	–	–	–	–	–	–	–	–	–
H-[dF]-Pro-[Aib]-OH [Example 15]	–	–	–	reduced	reduced expression	increased	reduced	reduced expression	reduced expression	reduced	reduced	reduced	reduced	increased	reduced
N^α,N^α-dimethyl-(L)-Nle-(L)-Pro-Aib-OH [Example 16]	–	–	–	reduced	reduced expression	increased	reduced	reduced expression	reduced expression	reduced	reduced	reduced	reduced	increased	reduced
N^α,N^α-dimethyl-(L)-Phe-(t)-Pro-Aib-OH [Example 17]	–	–	–	reduced	reduced expression	increased	reduced	reduced expression	reduced expression	reduced	reduced	reduced	reduced	increased	reduced
N^α-methyl-(D)-Phe-(L)-Pro-Aib-OH [Example 14]	–	–	–	reduced	reduced expression	increased	reduced	reduced expression	reduced expression	reduced	reduced	reduced	reduced	increased	reduced
